Reference: US20260001967A1, “SYNTHETIC HEXASACCHARIDES MIMICS OF HEPARIN SHOWING HEPARANASE INHIBITION ACTIVITY” (CENTRO ALTA TECNOLOGIA ISTITUTO DI RICERCHE CHIMICHE E …, priority 2022, published 2026)
Read-outs that look alike come from different tables or passages of the source.

What was measured:
heparanase [1] = molecular target: T1, heparanase (Homo sapiens, UniProt Q9Y251); experiment: Heparanase inhibition assay based on cleavage of fondaparinux, disaccharide assayed by colorimetry (Hammond); type: biochemical; settings: for Inhibition of heparanase: over the concentration range tested
T1 sequence (Q9Y251 158-543 limits assumed): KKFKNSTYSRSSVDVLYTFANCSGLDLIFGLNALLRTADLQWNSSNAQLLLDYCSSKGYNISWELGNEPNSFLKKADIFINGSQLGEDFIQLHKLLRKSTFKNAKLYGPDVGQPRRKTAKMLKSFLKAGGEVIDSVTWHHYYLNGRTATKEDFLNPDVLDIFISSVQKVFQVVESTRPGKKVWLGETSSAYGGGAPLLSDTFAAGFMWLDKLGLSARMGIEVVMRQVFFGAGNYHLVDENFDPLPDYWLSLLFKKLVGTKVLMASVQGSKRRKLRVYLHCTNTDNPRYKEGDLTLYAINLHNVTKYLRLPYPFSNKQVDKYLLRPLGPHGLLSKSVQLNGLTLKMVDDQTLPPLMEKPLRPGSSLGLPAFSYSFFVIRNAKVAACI
T1 sequence (Q9Y251 36-109 limits assumed): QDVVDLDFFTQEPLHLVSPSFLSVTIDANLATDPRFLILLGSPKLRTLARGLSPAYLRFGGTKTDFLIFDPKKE
Text: To prepare 12 we adopted (Scheme 1) a classical disaccharide building-block approach (C. Tabeur et al., Oligosaccharides corresponding to the regular sequence of heparin: chemical synthesis and interaction with FGF-2. Bioorg. Med. Chem. 1999, 7, 2003-2012) based on the trichloroacetimidate glycosylation method (R. R. Schmidt, W. Kinzy, Adv. Carbohydr. Chem. Biochem. 1992, 50, 21-123). […] The hexasaccharide sequence was completed by reaction under similar conditions with the trichloroacetimidate disaccharide 8 itself classically obtained from 6. […] After saponification to remove the acetyl groups and cleave the methyl esters, preparative HPLC allowed to separate 10 from its β-anomer. […] The glycol-split derivatives were then obtained (Scheme 2). […] The inhibition of heparanase was evaluated using an assay based on the cleavage of the synthetic heparin pentasaccharide fondaparinux (Arixtra®; Aspen). Cleavage of fondaparinux by heparanase, yields a disaccharide that is assayed by colorimetry. The assay was essentially performed as described by Hammond (E. Hammond, C. P. Li, V. Ferro, Development of a colorimetric assay for heparanase activity suitable for kinetic analysis and inhibitor screening, Anal. Biochem. 396 (2010), 112-116, http://doi.10.1016/j.ab.2009.09.007.
Serial dilutions of the compounds and of the reference roneparstat were tested. IC50 values were ultimately determined using GraphPad software.

heparanase [2] = molecular target: T1, heparanase; settings: cited from earlier work

| Compound | Inhibition of heparanase (heparanase [1]) | also measured |
| --- | --- | --- |
| COC1OC(COS(=O)(=O)O)C(OC2OC(C(=O)O)C(OC3OC(COS(=O)(=O)O)C(OC4OC(C(=O)O)C(OC5OC(COS(=O)(=O)O)C(OC6OC(C(=O)O)C(OC)C(O)C6OS(=O)(=O)O)C(O)C5N)C(O)C4O)C(O)C3N)C(O)C2OS(=O)(=O)O)C(O)C1N (stereo not drawn) [Compound 12] | hardly detectable |  |
| GlcN(Ns,6s)-GlcA(gs)-GlcN(Ns,1,6anh) |  | IC50 (heparanase [2]): 2 µg/mL |
| Roneparstat [reference compound] |  | IC50 (heparanase [1]): 0.006 µg/mL |

Second part, led by results:

| Inhibition of heparanase (heparanase [1]) | Compound | also measured |
| --- | --- | --- |
| hardly detectable | COC1OC(COS(=O)(=O)O)C(OC2OC(C(=O)O)C(OC3OC(COS(=O)(=O)O)C(OC4OC(C(=O)O)C(OC5OC(COS(=O)(=O)O)C(OC6OC(C(=O)O)C(OC)C(O)C6OS(=O)(=O)O)C(O)C5NS(=O)(=O)O)C(O)C4O)C(O)C3NS(=O)(=O)O)C(O)C2OS(=O)(=O)O)C(O)C1NS(=O)(=O)O (stereo not drawn) [Compound 13] | IC50 (heparanase [1]; Table 1, hexasaccharides, read-out: IC50): > 29.4 µM |
| hardly detectable | COC1OC(COS(=O)(=O)O)C(OC2OC(C(=O)O)C(OC3OC(COS(=O)(=O)O)C(OC4OC(C(=O)O)C(OC5OC(COS(=O)(=O)O)C(OC6OC(C(=O)O)C(OC)C(O)C6OS(=O)(=O)O)C(O)C5NC(C)=O)C(O)C4O)C(O)C3NC(C)=O)C(O)C2OS(=O)(=O)O)C(O)C1NC(C)=O (stereo not drawn) [Compound 16] |  |
